Experiments:
non-expressing oocytes [1] = assay: cells; format: cell-based, Xenopus laevis; settings: non-expressing oocytes, total [3H]CQ transport, normalised to the oocyte type control
Summary of the method: (§1)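 Inward transport into oocyte cytosol from pH 5.5 medium models PfCRT efflux from the acidic digestive vacuole. Incubation 1.5 h, 27.5 °C; termination by ice-cold washes; lysate radioactivity counted.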

PfCRT^3D7 [2] = target: T1, PfCRT^3D7 (Plasmodium falciparum, UniProt Q8IBZ9); assay: cell-based; format: cell-based; settings: PfCRT3D7 oocytes, total [3H]CQ transport, normalised to the oocyte type control
T1 sequence (Q8IBZ9 59-398): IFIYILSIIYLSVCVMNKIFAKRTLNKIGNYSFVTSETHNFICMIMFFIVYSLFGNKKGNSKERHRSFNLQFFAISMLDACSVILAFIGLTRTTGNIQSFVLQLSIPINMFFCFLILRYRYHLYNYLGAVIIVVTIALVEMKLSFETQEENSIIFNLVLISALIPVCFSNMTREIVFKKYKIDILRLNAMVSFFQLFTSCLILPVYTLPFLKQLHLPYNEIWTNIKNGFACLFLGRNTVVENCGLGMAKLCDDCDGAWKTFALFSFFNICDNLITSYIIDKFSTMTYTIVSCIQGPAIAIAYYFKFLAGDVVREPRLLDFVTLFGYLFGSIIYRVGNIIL
Summary of the method: as §1

PfCRT^Dd2 [3] = target: T2, PfCRT^Dd2 (Plasmodium falciparum, UniProt Q9N623, A220S/I356T/K76T/M74I/N326S/N75E/Q271E/R371I); assay: [3H]CQ uptake into Xenopus oocytes, cis-inhibition by unlabelled solute; format: cell-based; settings: PfCRTDd2 oocytes, background [3H]CQ accumulation subtracted, normalised to oocyte type control
T2 sequence (Q9N623 whole entry A220S/I356T/K76T/M74I/N326S/N75E/Q271E/R371I): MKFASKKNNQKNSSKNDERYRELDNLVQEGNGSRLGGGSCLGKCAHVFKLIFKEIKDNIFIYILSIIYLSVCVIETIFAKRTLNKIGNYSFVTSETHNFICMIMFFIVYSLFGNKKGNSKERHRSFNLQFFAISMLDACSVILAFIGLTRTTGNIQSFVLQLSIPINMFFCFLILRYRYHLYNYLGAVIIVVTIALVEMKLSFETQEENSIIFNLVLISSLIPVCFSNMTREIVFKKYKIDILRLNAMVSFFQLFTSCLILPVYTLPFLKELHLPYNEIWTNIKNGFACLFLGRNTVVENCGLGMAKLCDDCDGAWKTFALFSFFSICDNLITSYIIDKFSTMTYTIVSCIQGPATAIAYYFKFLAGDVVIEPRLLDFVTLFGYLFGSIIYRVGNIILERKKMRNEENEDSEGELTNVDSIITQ
Summary of the method: as §1

PfCRT^Ecu1110 [4] = target: T3, PfCRT^Ecu1110 (Plasmodium falciparum, UniProt Q9N623, A220S/I356L/K76T/N326D); assay: as above; format: cell-based; settings: for Uptake of [3H]CQ (% PfCRTEcu1110 control), cis-inhibition / PfCRT-mediated [3H]CQ transport, cis-inhibition (% PfCRTEcu1110 control): PfCRTEcu1110 oocytes; for Uptake of [3H]CQ (% PfCRTEcu1110 control), cis-inhibition: total [3H]CQ transport, normalised to the oocyte type control; for PfCRT-mediated [3H]CQ transport, cis-inhibition (% PfCRTEcu1110 control): background [3H]CQ accumulation subtracted, normalised to oocyte type control; for [3H]CQ transport (% PfCRTEcu1110 control), cis-inhibition, PfCRTEcu1110: PfCRT-mediated component (background subtracted), sheet title says normalised to PfCRTDd2 control, mean ± SEM, SEM
T3 sequence (Q9N623 whole entry A220S/I356L/K76T/N326D): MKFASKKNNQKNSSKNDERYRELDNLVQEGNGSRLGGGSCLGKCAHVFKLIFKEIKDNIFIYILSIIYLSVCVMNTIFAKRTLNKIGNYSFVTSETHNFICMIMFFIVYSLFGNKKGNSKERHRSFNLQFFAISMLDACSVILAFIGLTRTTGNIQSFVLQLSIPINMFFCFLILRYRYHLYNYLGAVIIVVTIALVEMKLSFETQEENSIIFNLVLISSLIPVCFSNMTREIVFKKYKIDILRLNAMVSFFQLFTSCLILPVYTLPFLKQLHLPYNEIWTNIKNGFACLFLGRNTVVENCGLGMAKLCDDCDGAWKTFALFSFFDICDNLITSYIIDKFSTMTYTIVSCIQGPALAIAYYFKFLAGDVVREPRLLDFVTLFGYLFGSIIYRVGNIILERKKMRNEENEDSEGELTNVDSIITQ
Summary of the method: as §1

non-expressing oocytes [5] = format: cell-based, Xenopus laevis; settings: non-expressing oocytes; [test solute]i = 45 mM (30 mM for some solutes due to solubility); total [3H]CQ transport, normalised to the oocyte type control
Summary of the method: (§2)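 Oocytes (ten per treatment, ≥4 independent frogs/days) were preloaded by injecting VF-6 in 25 nL ND96 at pH 5.0, 5.5, 6.0 or 7.0, or Na^+-free choline buffer, then uptake run 1.5 h, 27.5 °C, ND96 pH 5.5 by default. Internal concentrations assumed ~400 nL oocyte volume.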

PfCRT^3D7 [6] = target: T1, PfCRT^3D7; assay: cell-based; format: cell-based; settings: PfCRT3D7 oocytes; for Uptake of [3H]CQ (% PfCRT3D7 control), trans-stimulation: total [3H]CQ transport, normalised to the oocyte type control; for PfCRT-mediated [3H]CQ transport, trans-stimulation (% PfCRT3D7 control): normalised to oocyte type control
Summary of the method: as §2

PfCRT^Dd2 [7] = target: T2, PfCRT^Dd2; assay: cell-based; format: cell-based; settings: for Uptake of [3H]CQ (% PfCRTDd2 control), trans-stimulation / PfCRT-mediated [3H]CQ transport, trans-stimulation (% PfCRTDd2 control): PfCRTDd2 oocytes; for Uptake of [3H]CQ (% PfCRTDd2 control), trans-stimulation: total [3H]CQ transport, normalised to the oocyte type control; for PfCRT-mediated [3H]CQ transport, trans-stimulation (% PfCRTDd2 control): normalised to oocyte type control; for [3H]CQ transport (% PfCRTDd2 control), trans-stimulation, PfCRTDd2: PfCRT-mediated component (background subtracted), mean ± SEM, SEM
Summary of the method: as §2

PfCRT^Ecu1110 [8] = target: T3, PfCRT^Ecu1110; assay: cell-based; format: cell-based; settings: for Uptake of [3H]CQ (% PfCRTEcu1110 control), trans-stimulation / PfCRT-mediated [3H]CQ transport, trans-stimulation (% PfCRTEcu1110 control): PfCRTEcu1110 oocytes; for Uptake of [3H]CQ (% PfCRTEcu1110 control), trans-stimulation: total [3H]CQ transport, normalised to the oocyte type control; for PfCRT-mediated [3H]CQ transport, trans-stimulation (% PfCRTEcu1110 control): normalised to oocyte type control; for [3H]CQ transport (% PfCRTDd2 control), trans-stimulation, PfCRTEcu1110: PfCRT-mediated component (background subtracted), sheet title says normalised to PfCRTDd2 control, mean ± SEM, SEM
Summary of the method: as §2

PfNT1 = target: T4, PfNT1 (Plasmodium falciparum, UniProt Q8IDM6); assay: cell-based; format: cell-based; settings: PfNT1 oocytes, total [3H]CQ transport, normalised to the oocyte type control
T4 construct: expressed in transfected cells; host or cells: Xenopus laevis oocytes (stage V-VI), cRNA-injected
T4 sequence (Q8IDM6 whole entry): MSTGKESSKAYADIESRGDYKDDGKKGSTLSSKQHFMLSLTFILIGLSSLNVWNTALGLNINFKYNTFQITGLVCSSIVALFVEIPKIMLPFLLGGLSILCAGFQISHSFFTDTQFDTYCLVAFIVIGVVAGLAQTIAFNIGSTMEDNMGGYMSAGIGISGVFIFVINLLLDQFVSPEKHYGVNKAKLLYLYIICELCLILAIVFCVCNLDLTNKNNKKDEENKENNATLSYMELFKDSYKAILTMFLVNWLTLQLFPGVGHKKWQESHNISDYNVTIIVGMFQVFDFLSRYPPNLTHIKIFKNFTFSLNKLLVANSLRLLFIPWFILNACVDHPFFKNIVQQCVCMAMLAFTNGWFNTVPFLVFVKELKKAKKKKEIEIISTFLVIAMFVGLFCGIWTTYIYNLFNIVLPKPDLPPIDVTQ
Summary of the method: as §2

[9] = [test solute]i = 45 mM (30 mM for some solutes due to solubility)
[10] = [test solute]i = 5 mM (intracellular)
[11] = [test solute]i = 45 mM (intracellular; 30 mM for some solutes due to solubility)
[12] = [test solute]i = 5 mM (injected)

PVQA [PA-4]
Uptake of [3H]CQ (% non-expressing oocyte control), cis-inhibition (non-expressing oocytes [1]; [test solute] = 0.5 mM): 98 ± 3.0 % non-expressing oocyte control | Uptake of [3H]CQ (% non-expressing oocyte control), cis-inhibition (non-expressing oocytes [1]; [test solute] = 1 mM): 100 ± 4.7 % non-expressing oocyte control | Uptake of [3H]CQ (% non-expressing oocyte control), cis-inhibition (non-expressing oocytes [1]; [test solute] = 2 mM): 98 ± 3.9 % non-expressing oocyte control | Uptake of [3H]CQ (% PfCRT3D7 control), cis-inhibition (PfCRT^3D7 [2]; [test solute] = 0.5 mM): 99 ± 5.3 % PfCRT3D7 control | Uptake of [3H]CQ (% PfCRT3D7 control), cis-inhibition (PfCRT^3D7 [2]; [test solute] = 1 mM): 99 ± 4.8 % PfCRT3D7 control | Uptake of [3H]CQ (% PfCRT3D7 control), cis-inhibition (PfCRT^3D7 [2]; [test solute] = 2 mM): 99 ± 5.7 % PfCRT3D7 control | PfCRT-mediated [3H]CQ transport, cis-inhibition (% PfCRTDd2 control) (PfCRT^Dd2 [3]; [test solute] = 0.5 mM): 51 ± 3.0 % PfCRTDd2 control | PfCRT-mediated [3H]CQ transport, cis-inhibition (% PfCRTDd2 control) (PfCRT^Dd2 [3]; [test solute] = 1 mM): 41 ± 2.9 % PfCRTDd2 control | PfCRT-mediated [3H]CQ transport, cis-inhibition (% PfCRTDd2 control) (PfCRT^Dd2 [3]; [test solute] = 2 mM): 31 ± 1.2 % PfCRTDd2 control | Uptake of [3H]CQ (% PfCRTEcu1110 control), cis-inhibition (PfCRT^Ecu1110 [4]; [test solute] = 0.5 mM): 65 ± 2.9 % PfCRTEcu1110 control | Uptake of [3H]CQ (% PfCRTEcu1110 control), cis-inhibition (PfCRT^Ecu1110 [4]; [test solute] = 1 mM): 59 ± 3.6 % PfCRTEcu1110 control | Uptake of [3H]CQ (% PfCRTEcu1110 control), cis-inhibition (PfCRT^Ecu1110 [4]; [test solute] = 2 mM): 43 ± 2.5 % PfCRTEcu1110 control | PfCRT-mediated [3H]CQ transport, cis-inhibition (% PfCRTEcu1110 control) (PfCRT^Ecu1110 [4]; [test solute] = 0.5 mM): 61 ± 0.4 % PfCRTEcu1110 control | PfCRT-mediated [3H]CQ transport, cis-inhibition (% PfCRTEcu1110 control) (PfCRT^Ecu1110 [4]; [test solute] = 1 mM): 52 ± 2.6 % PfCRTEcu1110 control | PfCRT-mediated [3H]CQ transport, cis-inhibition (% PfCRTEcu1110 control) (PfCRT^Ecu1110 [4]; [test solute] = 2 mM): 39 ± 2.1 % PfCRTEcu1110 control | [3H]CQ transport (% PfCRTEcu1110 control), cis-inhibition, PfCRTEcu1110 (PfCRT^Ecu1110 [4]; [test solute] = 1 mM): 16 ± 0.1 % PfCRTEcu1110 control | [3H]CQ transport (% PfCRTEcu1110 control), cis-inhibition, PfCRTEcu1110 (PfCRT^Ecu1110 [4]; [test solute] = 2 mM): 12 ± 0.2 % PfCRTEcu1110 control | Uptake of [3H]CQ (% non-expressing oocyte control), trans-stimulation (non-expressing oocytes [5]): 100 ± 2.6 % non-expressing oocyte control | Uptake of [3H]CQ (% PfCRT3D7 control), trans-stimulation (PfCRT^3D7 [6]; [test solute]i = 5 mM): 130 ± 4.2 % PfCRT3D7 control | Uptake of [3H]CQ (% PfCRT3D7 control), trans-stimulation (PfCRT^3D7 [6]; [9]): 149 ± 5.8 % PfCRT3D7 control | PfCRT-mediated [3H]CQ transport, trans-stimulation (% PfCRT3D7 control) (PfCRT^3D7 [6]; [10]): 124 ± 3.2 % PfCRT3D7 control | PfCRT-mediated [3H]CQ transport, trans-stimulation (% PfCRT3D7 control) (PfCRT^3D7 [6]; [11]): 141 ± 4.0 % PfCRT3D7 control | Uptake of [3H]CQ (% PfCRTDd2 control), trans-stimulation (PfCRT^Dd2 [7]; [test solute]i = 5 mM): 98 ± 2.2 % PfCRTDd2 control | Uptake of [3H]CQ (% PfCRTDd2 control), trans-stimulation (PfCRT^Dd2 [7]; [9]): 115 ± 1.1 % PfCRTDd2 control | PfCRT-mediated [3H]CQ transport, trans-stimulation (% PfCRTDd2 control) (PfCRT^Dd2 [7]; [10]): 96 ± 3.2 % PfCRTDd2 control | PfCRT-mediated [3H]CQ transport, trans-stimulation (% PfCRTDd2 control) (PfCRT^Dd2 [7]; [11]): 110 ± 0.9 % PfCRTDd2 control | [3H]CQ transport (% PfCRTDd2 control), trans-stimulation, PfCRTDd2 (PfCRT^Dd2 [7]; [12]): 96 ± 3.2 % PfCRTDd2 control | [3H]CQ transport (% PfCRTDd2 control), trans-stimulation, PfCRTDd2 (PfCRT^Dd2 [7]; [9]): 110 ± 0.9 % PfCRTDd2 control | Uptake of [3H]CQ (% PfCRTEcu1110 control), trans-stimulation (PfCRT^Ecu1110 [8]; [test solute]i = 5 mM): 122 ± 3.0 % PfCRTEcu1110 control | Uptake of [3H]CQ (% PfCRTEcu1110 control), trans-stimulation (PfCRT^Ecu1110 [8]; [9]): 133 ± 3.5 % PfCRTEcu1110 control | PfCRT-mediated [3H]CQ transport, trans-stimulation (% PfCRTEcu1110 control) (PfCRT^Ecu1110 [8]; [10]): 117 ± 2.4 % PfCRTEcu1110 control | PfCRT-mediated [3H]CQ transport, trans-stimulation (% PfCRTEcu1110 control) (PfCRT^Ecu1110 [8]; [11]): 127 ± 1.9 % PfCRTEcu1110 control | [3H]CQ transport (% PfCRTDd2 control), trans-stimulation, PfCRTEcu1110 (PfCRT^Ecu1110 [8]; [12]): 35 ± 1.3 % PfCRTEcu1110 control | [3H]CQ transport (% PfCRTDd2 control), trans-stimulation, PfCRTEcu1110 (PfCRT^Ecu1110 [8]; [9]): 38 ± 1.1 % PfCRTEcu1110 control | Uptake of [3H]CQ (% PfNT1 control), trans-stimulation (PfNT1; [test solute]i = 5 mM): 96 ± 3.5 % PfNT1 control | Uptake of [3H]CQ (% PfNT1 control), trans-stimulation (PfNT1; [9]): 98 ± 3.4 % PfNT1 control

— publication PMC7413254 (Nature Communications, 2020)
